Data published in US20120214684A1, “COMPOSITIONS AND METHODS FOR DETECTING AND TREATING PROSTATE CARCINOMA” (UNIVERSITY OF FLORIDA RESEARCH FOUNDATION, priority 2009, published 2012).

Assays:
[1] = test system: prostate cancer stem cells (CSC) and non-stem prostate cancer cells (Non-CSC); assay: Cell viability of CSC and Non-CSC after Docetaxel; assay type: cell-based, human; details: 5 nM Docetaxel, Day 0, 1, 2 and 3
Procedure: (§1) FIG. 12B is a graph depicting the cell viability of prostate cancer stem cells (CSC) and non-stem prostate cancer cells (Non-CSC) observed for up to 72 hours after treatment with Docetaxel. Cell viability was determined by quantifying the surviving prostate cancer stem cells (CSC) and non-stem prostate cancer cells (Non-CSC) in the samples exposed to 5 nM Docetaxel at Day 0, 1, 2 and 3.
(§2) Prostate cancer stem cells from metastatic prostate cancer cell lines were examined for their sensitivity to conventional cancer treatments (e.g., radiation and chemotherapy). […] Metastatic prostate stem cell lines were also treated with Docetaxel, a frontline treatment for drug-resistant cancer cells.

[2] = test system: Sox2, Oct3/4, Nanog; assay: Western blot of stem cell markers after Docetaxel treatment; assay type: cell-based, human; details: 1 nM, 2 nM, 5 nM, 10 nM docetaxel
Procedure: as §1, §2
For the experiments described above, Western-blot analysis was performed by standard methods on isolated cancer stem cells and non-cancer stem cells. Whole cell lysates were prepared in lysis buffer with a commercially available protease inhibitor cocktail (Pierce) at 4° C., followed by centrifugation at 13,000×g for 10 min. Extracts were separated by SDS/PAGE and transferred to nitrocellulose membranes. The membranes were blocked with 5% nonfat dry milk in 20 mM Tris-HCl (pH 7.5), 500 mM sodium chloride, and 0.05% Tween 20 for 2 h and then incubated with commercially available primary antibodies in the same buffer with 1% BSA (fraction V). […]

CC(=O)O[C@@]12CO[C@@H]1C[C@H](O)[C@@]1(C)C(=O)[C@H](O)C3=C(C)[C@@H](OC(=O)[C@H](O)[C@@H](NC(=O)OC(C)(C)C)c4ccccc4)C[C@@](O)([C@@H](OC(=O)c4ccccc4)[C@H]21)C3(C)C [Docetaxel]
cell viability of prostate cancer stem cells vs non-stem prostate cancer cells [1]: more cell viability compared to non-stem prostate cancer cells
detection of Sox2, Oct 3/4 and Nanog expression [2]: increased detection of Sox2, Oct 3/4 and Nanog expression with increasing dose
